In patent US12606571B2, “Macrocyclic compounds and uses thereof” (TURNING POINT THERAPEUTICS, INC., priority 2017, dated 2026):
pIC50: −log10 of the molar value. Like-named read-outs stand apart in the source and are kept apart here.

Columns and labels:
M-NFS-60 cells = test: M-NFS-60 cell proliferation at varied CSF-1; format: cell-based; conditions: Mus musculus
Experimental: Two thousand cells per well were seeded in 384 well white plate for 24 hrs, and then treated with compounds for 72 hours (37° C., 5% CO2). Cell proliferation was measured using CellTiter-Glo luciferase-based ATP detection assay (Promega) following the manufacturer's protocol. IC50 determinations were performed using GraphPad Prism software (GraphPad, Inc., San Diego, CA).
The anti-cell proliferation activities against MET and CSF1R driven cell lines were conducted with MKN-45, SNU-5, Ba/F3 TEL-CSF1R cells, and M-NFS-60 respectively.

MC38 syngeneic tumors [1] = test: Combination efficacy study with PD-1 antibody in MC38 syngeneic model; format: in vivo, mouse
Experimental: (§1) C57BL/6J female mice (6 weeks) were purchased from the Jackson Laboratory, and maintained in accordance with the guidelines for the care and use of laboratory animals. Half million MC38 cancer cells in 100 μL serum-free medium were implanted subcutaneously in the right flank region of the mouse. Tumor size and body weight were measured on designated days. Tumor size was measured with an electronic caliper and tumor volume was calculated as the product of length*width^2*0.5. […] Vehicle control, Compound 5, PD-1 antibody or Compound 5 plus PD-1 antibody were administered orally (BID) at determined doses.
Anti-tumor effects of Compound 5 combined with PD-1 antibody on MC38 syngeneic tumors was analyzed by tumor volume. The average tumor volume of vehicle control group (G1) on day 20 was 1938.58±729.41, Compound 5 treated group (G2) was 1220.03±521.39 mm3, PD-1 antibody treatment group was 821.24±767.16, and Compound 5 plus PD-1 antibody treatment was 515.63±350.47.

MC38 syngeneic tumors [2] = test: Subcutaneous MC38 syngeneic mouse tumor model, tumor volume and body weight; format: in vivo
Experimental: as §1
Anti-tumor effects of Compound 5 on MC38 syngeneic tumors was analyzed by tumor volume. The average tumor volume of vehicle control group (G1) on day 7 was 696.3±299.7, while Compound 5 treated group (G2) was 473.5±170.4 mm^3. On day 11, the average tumor volume of G1 and G2 were 1142.6±290.0 and 610.4±151.8mm^3, respectively.

[3] = tested on: MET phosphorylation and downstream signaling in MKN-45 cells; test: Immunoblotting for cellular kinase phosphorylation, MKN-45; format: cell-based; conditions: 16 hour incubation
Experimental: Half a million cells per well were seeded in 24 well plate for 24 hrs, and then treated with compounds for 4 hours. Cells were collected after treatment and lysed in RIPA buffer (50 mM Tris, pH 7.4, 150 mM NaCl, 1% NP-40, 0.5% Deoxycholate, 0.1% SDS) supplemented with 10 mM EDTA, 1× Halt protease and phosphatase inhibitors (Thermo Scientific). […] Membranes were incubated with chemiluminescent substrate for 5 min at room temperature (SuperSignal West Femto, Thermo Scientific). The chemiluminescent images were acquired with a C-DiGit Imaging System (LI-COR Biosciences). The relative density of the chemiluminescent bands were quantified via Image Studio Digits from LICOR. The half inhibitory concentration (IC50) value is calculated using non-linear regression analysis through GraphPad Prism software (GraphPad, Inc., San Diego, CA).

SRC = biological target: T1, SRC (Homo sapiens, UniProt P12931); test: Biochemical kinase assay (Reaction Biology), SRC; conditions: 10 μM ATP; read-out: Enzymatic Kinase SRC IC50
T1 construct: purchased Reaction Biology Corporation (assay service; enzyme from the CRO's panel)
T1 sequence (P12931 whole entry): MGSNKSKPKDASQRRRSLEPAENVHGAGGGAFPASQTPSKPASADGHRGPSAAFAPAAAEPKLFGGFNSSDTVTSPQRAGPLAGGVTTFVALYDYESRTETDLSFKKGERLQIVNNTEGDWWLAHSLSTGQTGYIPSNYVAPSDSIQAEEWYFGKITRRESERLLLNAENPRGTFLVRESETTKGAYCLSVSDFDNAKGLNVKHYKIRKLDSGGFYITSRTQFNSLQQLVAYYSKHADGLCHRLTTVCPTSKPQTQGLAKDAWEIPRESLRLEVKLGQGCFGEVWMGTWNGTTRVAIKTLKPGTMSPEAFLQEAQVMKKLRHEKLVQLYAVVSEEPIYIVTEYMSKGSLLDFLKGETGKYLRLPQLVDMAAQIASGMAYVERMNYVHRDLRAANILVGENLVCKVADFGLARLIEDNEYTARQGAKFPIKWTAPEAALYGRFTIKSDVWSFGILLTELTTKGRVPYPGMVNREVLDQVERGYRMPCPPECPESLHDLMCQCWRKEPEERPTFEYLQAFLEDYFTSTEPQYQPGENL
Experimental: The biochemical kinase assay was performed at Reaction Biology Corporation (www.reactionbiology.com, Malvern, PA) following the procedures described in the reference (Anastassiadis T, et al Nat Biotechnol. 2011, 29, 1039). Specific kinase/substrate pairs along with required cofactors were prepared in reaction buffer; 20 mM Hepes pH 7.5, 10 mM MgCl2,1 mM EGTA, 0.02% Brij35, 0.02 mg/ml BSA, 0.1 mM Na3VO4, 2 mM DTT, 1% DMSO (for specific details of individual kinase reaction components see Supplementary Table 2). Compounds were delivered into the reaction, followed ˜20 minutes later by addition of a mixture of ATP (Sigma, St. Louis MO) and ^33P ATP (Perkin Elmer, Waltham MA) to a final concentration of 10 μM. Reactions were carried out at room temperature for 120 min, followed by spotting of the reactions onto P81 ion exchange filter paper (Whatman Inc., Piscataway, NJ). Unbound phosphate was removed by extensive washing of filters in 0.75% phosphoric acid. […] IC50 values and curve fits were obtained using Prism (GraphPad Software).
The enzymatic kinase inhibition activities at 10 μM ATP concentration were determined at Reaction Biology.

[4] = tested on: tumor associated immune cells in MC38 tumors; test: MC38 syngeneic model PD biomarker study (FACS of tumor associated immune cells)
Experimental: MC38 tumors were collected on day 7 and day 11. The collected tumors were dissociated using MiltenyiGentleMax. FACS analysis of tumors were performed for the tumor associated immune cells including tumor associated macrophages (TAM) and TAM subtypes (M1 and M2), myeloid derived suppression cells (MDSC), cytotoxic T lymphocytes (CTL, i.e. CD8+ T cells), CD4+ T cells, and regulatory T cells (Treg).
FACS analysis of tumors were performed on day 7 and day 11 for the tumor associated immune cells including tumor associated macrophages (TAM) and TAM subtypes (MI and M2), myeloid derived suppression cells (MDSC), cytotoxic T lymphocytes (CTL, i.e. CD8+ T cells), CD4+ T cells, and regulatory T cells (Treg).

MKN-45 cells = test: Scratch wound healing assay, MKN-45; format: cell-based; conditions: 36-48 hours treatment
Experimental: MKN-45 or HCC827 cells were seeded in 24-well plate. After 12-24 hours, confluent cell monolayers were gently scraped with a sterile pipette tip to form a scratch. The plates were washed with fresh medium, and the cells were incubated with medium alone or medium containing various concentration of compounds. After 36-48 hours, the plates were examined and recorded by an EVOS FL microscopy (Life Technology) to monitor rescaling of the cell monolayer.

LU2503 tumors = test: LU2503 patient derived xenograft (PDX) NSCLC model
Experimental: Primary human tumor xenograft model LU2503 tumors were grown in stock mice. Tumor fragments (2-3 mm in diameter) were harvested from stock mice and inoculated into the right front back of each mouse for tumor development. 16 mice were enrolled in the study. All animals were randomly allocated to the 2 different study groups. Tumor size and body weight were measured on designated days. Tumor size was measured using a caliper and tumor volume was calculated as the product of length*width^2*0.5.

CCN1Cc2c(ccc(F)c2C#N)O[C@@H](C)CNC(=O)c2c(N)nn3ccc1nc23 [Compound 5, (7S)-3-amino-14-ethyl-11-fluoro-7-methyl-4-oxo-4,5,6,7,13,14-hexahydro-1,15-ethenopyrazolo[4,3-f][1,4,8,10]benzoxatriazacyclotridecine-12-carbonitrile]
pIC50 (M-NFS-60 cells; read-out: M-NFS-60 IC50, CSF-1 0 ng/mL): 9.52 | pIC50 (M-NFS-60 cells; read-out: M-NFS-60 IC50, CSF-1 0.3 ng/mL): 8.52 | pIC50 (M-NFS-60 cells; read-out: M-NFS-60 IC50, CSF-1 1 ng/mL): 7.94 | pIC50 (M-NFS-60 cells; read-out: M-NFS-60 IC50, CSF-1 3 ng/mL): 7.11 | pIC50 (M-NFS-60 cells; read-out: M-NFS-60 IC50, CSF-1 10 ng/mL): 7.08 | pIC50 (M-NFS-60 cells; read-out: M-NFS-60 IC50, CSF-1 30 ng/mL): 6.74 | pIC50 (M-NFS-60 cells; read-out: M-NFS-60 IC50, CSF-1 100 ng/mL): 6.76 | average tumor volume (MC38 syngeneic tumors [1]; day 20): 1220.03±521.39 mm3 | body weight and overt abnormality (MC38 syngeneic tumors [1]; mouse, in vivo): No body weight loss and overt abnormality | body weight and overt abnormality (MC38 syngeneic tumors [2]; 15 mg/kg BID for 7 or 11 days): No body weight loss and overt abnormality | average tumor volume (MC38 syngeneic tumors [2]; day 7, 15 mg/kg BID): 473.5±170.4 mm^3 | average tumor volume (MC38 syngeneic tumors [2]; day 11, 15 mg/kg BID): 610.4±151.8 mm^3 | phosphorylation of MET and downstream effectors (gel) [3]: inhibited | pIC50 (SRC): 9.92 | TAM cells vs control ([4]; day 7): trend for a reduction | populations of TAM, M1, M2, MDSC, CTL, CD4+ T cells, Treg in CD45+ tumor leukocytes vs control ([4]; day 7): no statistically significant changes | CD4+ T cells or Treg cells vs control ([4]; day 11): no statistically significant change | CTL cells in the total tumor leukocyte population vs control ([4]; day 11): trend of increase | CTL in the CD3+ lymphocyte population vs control ([4]; day 11): statistically significant increase | M1 TAM in the total tumor leukocyte population vs control ([4]; day 11): increase | M2 TAM in the total tumor leukocyte population vs control ([4]; day 11): decrease | MDSC populations vs control ([4]; day 11): concurrent increase | TAM in the total tumor leukocyte population vs control ([4]; day 11): statistically significant decrease | cell migration of MKN-45 cells, wound healing (MKN-45 cells): inhibited | tumor regression (LU2503 tumors; 15 mg/kg, BID for 13 days): 85% | body weight (LU2503 tumors; 21 days of BID treatment at 15 mg/kg): No body weight loss
